Measurements published in patent publication US5559153A, “Urea-substituted benzoylguanidines, process for their preparation, their use as pharmaceutical or diagnostic, and pharmaceutical containing them” (priority 1993, dated 1996).
Where a name gives a salt, the structure may show the parent alone.

What was measured:
[1] = biological target: T1, Na^+ /H^+ exchanger of rabbit erythrocytes (Oryctolagus cuniculus, UniProt P23791); experiment: Inhibition of the Na^+ /H^+ exchanger of rabbit erythrocytes (Na^+ influx by flame photometry); type: cell-based, rabbit (New Zealand White); conditions: pH 7.4, 37° C., Na^+ influx in hyperosmolar salt/sucrose medium
T1 construct: Na^+ influx into the erythrocytes via Na^+ /H^+ exchange; endogenous in cells; host or cells: intact erythrocytes from blood of cholesterol-fed New Zealand White rabbits (Ivanovas)
From the text: Inhibition of the Na^+ /H^+ exchanger of rabbit erythrocytes:
New Zealand White rabbits (Ivanovas) received a standard diet containing 2% cholesterol for six weeks in order to activate the Na^+ /H^+ exchange and thus to be able to determine, by flame photometry, the Na^+ influx into the erythrocytes via Na^+ /H^+ exchange. The blood was removed from the aural arteries and rendered incoagulable using 25 IE/ml of potassium heparin. A part of each sample was used for the duplicate determination of the hematocrit by means of centrifugation. Aliquots of in each case 100 μl were used for measuring the initial Na^+ content of the erythrocytes.
In order to determine the amiloride-sensitive sodium influx, 100 μl of each blood sample were in each case incubated, at pH 7.4 and 37° C., in 5 ml of a hyperosmolar salt/sucrose medium (mmol/l: 140 NaCl, 3 KCl, 150 sucrose, 0.1 ouabain, 20 tris(hydroxymethyl)aminomethane). The erythrocytes were then washed three times with ice-cold MgCl2 /ouabain solution (mmol/l: 112 MgCl2, 0.1 ouabain) and hemolyzed in 2.0 ml of distilled water. The intracellular sodium content was determined by flame photometry.
The net influx of Na^+ was calculated from the difference between the initial sodium values and the sodium content of the erythrocytes following incubation. The amiloride-inhibitable sodium influx resulted from the difference in the sodium content of the erythrocytes following incubation with and without amiloride 3×10^-4 mol/l. This method was also employed in the case of the compounds according to the invention.

cardiac arrhythmias = conditions: in vivo; cited from earlier work
[2] = tested on: artificially induced ventricular fibrillation, rat hearts; conditions: isolated rat hearts; cited from earlier work

T1 sequence (P23791 whole entry): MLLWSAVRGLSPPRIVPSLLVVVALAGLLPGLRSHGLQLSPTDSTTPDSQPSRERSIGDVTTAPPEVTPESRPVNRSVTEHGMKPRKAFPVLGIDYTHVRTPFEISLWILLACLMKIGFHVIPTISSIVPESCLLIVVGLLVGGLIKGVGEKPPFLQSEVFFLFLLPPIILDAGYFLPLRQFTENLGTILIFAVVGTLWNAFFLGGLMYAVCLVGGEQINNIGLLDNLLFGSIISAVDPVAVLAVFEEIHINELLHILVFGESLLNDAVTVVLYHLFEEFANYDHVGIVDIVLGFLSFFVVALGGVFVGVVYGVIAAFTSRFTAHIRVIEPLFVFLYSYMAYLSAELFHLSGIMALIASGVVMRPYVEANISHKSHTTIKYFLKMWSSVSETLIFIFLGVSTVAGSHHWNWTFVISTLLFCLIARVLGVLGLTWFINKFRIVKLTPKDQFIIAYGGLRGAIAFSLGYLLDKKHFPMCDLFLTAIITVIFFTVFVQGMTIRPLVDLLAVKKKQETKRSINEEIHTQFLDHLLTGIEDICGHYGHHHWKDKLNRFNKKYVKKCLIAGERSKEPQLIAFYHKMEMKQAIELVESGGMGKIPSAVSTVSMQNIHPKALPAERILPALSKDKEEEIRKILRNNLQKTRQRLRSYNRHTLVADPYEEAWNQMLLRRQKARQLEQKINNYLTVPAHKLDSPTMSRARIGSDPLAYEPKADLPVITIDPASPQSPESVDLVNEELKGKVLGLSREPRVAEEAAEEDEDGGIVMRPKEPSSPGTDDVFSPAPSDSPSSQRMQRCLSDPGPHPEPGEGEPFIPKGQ

Compound	IC50 [1]	also measured
N=C(N)NC(=O)c1cc(Cl)c(NC(=O)Nc2ccccc2)c(Cl)c1 [Example 21, 3,5-Dichloro-4-(phenylaminocarbonylamino)benzoylguanidine hydrochloride]	1 µM	
CCNC(=S)Nc1cc(C(=O)NC(=N)N)ccc1Cl [Example 17, 4-Chloro-3-(ethylaminothiocarbonylamino)benzoylguanidine hydrochloride]	3 to 5 µM	
CCCNC(=O)Nc1c(Cl)cc(C(=O)NC(=N)N)cc1Cl [Example 20, 3,5-Dichloro-4-(n-propylaminocarbonylamino)benzoylguanidine hydrochloride]	2 to 5 µM	
CC(C)(C)NC(=O)Nc1ccc(Cl)cc1C(=O)NC(=N)N [Example 7, 5-Chloro-2-(tert-butylaminocarbonylamino)benzoylguanidine hydrochloride]	3 to 8 µM	
N=C(N)NC(=O)c1nc(Cl)c(N)nc1N [amiloride]		antiarrhythmic effect (cardiac arrhythmias): only weakly expressed; side effects (hypotensive and saluretic) (cardiac arrhythmias): hypotensive and saluretic effects; suppression of artificially induced ventricular fibrillation [2]: completely suppress artificially induced ventricular fibrillation
CCN(c1nc(N)c(C(=O)NC(=N)N)nc1Cl)C(C)C [ethylisopropylamiloride]		suppression of artificially induced ventricular fibrillation [2]: even more potent than amiloride
CN(C)C(=O)Nc1ccc(Cl)cc1C(=O)NC(=N)N [Example 3, 5-Chloro-2-(dimethylaminocarbonylamino)benzoylguanidine hydrochloride]	3 µM	
N=C(N)NC(=O)c1cc(Cl)ccc1NC(=O)N1CCCCC1 [Example 1, 5-Chloro-2-(piperidinocarbonylamino)benzoylguanidine]	1 to 2 µM	
